Reference: US20230129036A1, “AVENANTHRAMIDE COMPOSITIONS WITH IMPROVED SOLUBILITY COMPRISING 4-HYDROXYPHENONE” (priority 2020, published 2023)
One block for each compound: values may come before it.

Columns and labels:
[1] = Solubility / appearance of avenanthramide solutions with and without 4-hydroxyacetophenone, evaluated at 22° C.; format: physicochemical
Protocol: The solubility of avenanthramides A, B, C, D or L and Dihydroavenanthramide D in solution in combination with 4-hydroxyacetophenone in different concentrations was evaluated against a solution of avenanthram ides A, B, C, D and L without 4-hydroxyacetophenone.
The corresponding avenanthramides were presolved in ethanol or glycol. Water and 4-hydroxyacetophenone were added under stirring and heating up the solution to 60° C. The appearance of the solutions was evaluated at 22° C. according to the following Table 1: […]

[2] = Avn C, followed by Avn B and Avn A; cited from earlier work
[3] = addition of 4-hydroxyacetophenone in concentration of 0.1 or 0.5 wt % (Table 3, Table 4 b)

Effect of 4-hydroxyacetophenone on solubility ([1]; 4-hydroxyacetophenone 0.01 wt %): improves the solubility
Compound: O=C(C=Cc1ccc(O)cc1)Nc1ccc(O)cc1C(=O)O [Avenanthramide A, N-(4′-hydroxycinnamoyl)-5-hydroxyanthranilic acid]
Appearance of solution [1, 3]: clear solutions without turbidity or precipitation

Compound: O=C(CCc1ccc(O)cc1)Nc1ccccc1C(=O)O [Dihydroavenanthramide D, 2-[(3-(4-hydroxyphenyl)propanoyl]amido)benzoic acid]
Appearance of solution ([1]; addition of 4-hydroxyacetophenone in concentrations of 0.5 to 1.0% (Tables 7 a and 7 b)): clear solutions withouts turbidity or precipitation

Appearance of solution ([1]; 4-hydroxyacetophenone concentration increased to 0.5% as in Table 4 b): clear solution | Effect of addition of 4-hydroxyacetophenone on solubility / appearance ([1]; versus solution without 4-hydroxyacetophenone, increasing concentration): improved
Compound: O=C(/C=C/C=C/c1ccc(O)cc1)Nc1ccc(O)cc1C(=O)O [Avenanthramide L]
Appearance of solution [1, 3]: clear solutions without turbidity or precipitation

Compound: O=C(C=Cc1ccc(O)c(O)c1)Nc1ccc(O)cc1C(=O)O [Avenanthramide C, N-(3′-4′-dihydroxycinnamoyl)-5-hydroxyanthranilic acid]
Antioxidant activity, ranking among Avns [2]: highest activity
